Test results: paper PMC9556435 (2022)

How the values were obtained:
[1] = test system: MYC-G4 (DNA, G4) TGAGGGTGGGTAGGGTGGGTAA; assay: 1H NMR titration; details: 50 mM K+; 150 μM DNA, pH 7, 25 °C, DMSO-d6 < 1.5%
[2] = test system: VEGF-G4 (DNA, G4) CAGGGCGGGCCTTGGGCGGGAT; assay: 1H NMR titration; details: 50 mM K+; 150 μM DNA, pH 7, 25 °C, DMSO-d6 < 1.5%
[3] = test system: KRAS-G4 (Pu24m1) (DNA, G4) TGAGGGCGGTGTGGGAATAGGGAA; assay: CD melting (264 nm); details: 15 mM K+; potassium phosphate/KCl, pH 7; 20 μM DNA, 2 equivalents compound
[4] = test system: KRAS-G4 (Pu24m1) (DNA, G4) TGAGGGCGGTGTGGGAATAGGGAA; assay: NMR solution structure; details: 50 mM K+; 1.5 mM DNA, pH 7, DMSO-d6 < 3.5%; stacks on both outer tetrads
[5] = test system: KRAS-G4 (Pu24m1) (DNA, G4) TGAGGGCGGTGTGGGAATAGGGAA; assay: fluorescence titration; details: 50 mM K+; pH 7; 0.2 μM compound fixed, titrated with DNA; 2:1 binding equation

binding [1] | binding [2] | ΔTm [3] | binding [4] | Kd [5] | SMILES
yes | yes | 15 °C | yes | 550 nM | COc1ccc2cc3[n+](cc2c1OC)CCc1cc2c(cc1-3)OCO2
yes | yes | 19 °C | yes | 500 nM | c1c2c(cc3c1OCO3)-c1cc3ccc4c(c3c[n+]1CC2)OCO4
